Patent publication US9328369B2, “Process for production of useful substance, and surfactant for use in the process” (priority 2009, dated 2016)

System: Escherichia coli (β)
Assay: Screening of secretion efficiency, TorA expressing strain
Assay type: cell-based
Settings: surfactant 1 wt %; 37° C., 1 hour; ELISA, anti-His-tag antibody
Description: A torA gene of an Escherichia coli strain W3110 was amplified by the PCR method using primers 3 and 4 (Table 4). After being treated with restriction enzymes NdeI and BamHI, a PCR fragment was bound to an NdeI restriction enzyme site and a BamHI restriction enzyme site of a pET-22b plasmid (product of Novagen). Then, the plasmid was transformed into an AG1 (DE3) Escherichia coli strain to form a TorA expressing strain (β). Localization of the expressed TorA in a periplasmic fraction was confirmed by conducting an analysis based on the method disclosed in page 121 of Vol. 353 of METHODS IN ENZYMOLOGY (2002).
A pdxA gene of an Escherichia coli strain W3110 was amplified by the PCR method using primers 5 and 6 (Table 4). After being treated with restriction enzymes NdeI and BamHI, a PCR fragment was bound to an NdeI restriction enzyme site and a BamHI restriction enzyme site of a pET-22b plasmid (product of Novagen). Then, the plasmid was transformed into an AG1 (DE3) Escherichia coli strain to form a PdxA expressing strain (γ). Localization of the expressed PdxA in a cytoplasmic compartment was confirmed by conducting an analysis based on the method disclosed in page 121 of Vol. 353 of METHODS IN ENZYMOLOGY (2002). […]
(4) Then, the solution was allowed to stand at 37° C. for 1 hour. […] Here, the quantification of the recombinant protein in the resulting solution was carried out by ELISA assay with use of an anti-His-tag antibody. The sample prior to the centrifugation in the process (3) was treated with ultrasonic waves (200 W, 10 minutes) and the quantification of the recombinant protein therein was similarly carried out by ELISA assay with use of an anti-His-tag antibody. The ratio of lysed bacteria was obtained with use of Escherichia coli (γ), and the secretion efficiencies of the recombinant proteins of Escherichia coli (α) and (β) were calculated by using the following formula. […]
“Z” represents the ratio of lysed bacteria obtained with use of Escherichia coli (γ), which is determined by the following formula: Z=Z1/Z2. […]

Polyoxyethylene(3 mol)tridecyl ether sodium acetate [A-1]
Secretion efficiency (%) Escherichia coli (β): 98.2%

Cured palm oil fatty acid amidopropyl dimethyl aminoacetate betaine [A-6]
Secretion efficiency (%) Escherichia coli (β): 85.4%
